Literature values as cited in US20220378706A1, “PHARMACEUTICAL COMPOSITION COMPRISING PDE9 INHIBITOR” (Eisai R&D Management Co., Ltd., priority 2017, published 2022).

System: CSF cGMP
Settings: healthy subjects, 40 mg; cited from earlier work

## C[C@@H]1CN(Cc2ncccn2)C[C@H]1c1nc2c(cnn2C2CCOCC2)c(=O)[nH]1 [PF 04447943]
  CSF cGMP elevation: CSF cGMP elevation was demonstrated
